Experimental data: article PMC6501426 (Clinical Epigenetics, 2019)
pIC50: −log10 of the molar value.

Tests used:
[1] = system: methylated CMV promoter-driven luciferase reporter in KG-1 cells; assay: CMV-luc assay in KG-1 cells; format: cell-based, human; details: KG-1 CMV-luc
Description: The assay was carried out as described by Rilova et al.. The KG-1 cell line was stably transfected with the luciferase firefly (Luc^+ from pGL3 by Promega, Madison, WI, USA) reporter gene under the control of a methylated CMV promoter (from pEGFP-N1 by Clontech) and selected for the maintenance of the methylation of CMV and luciferase expression silencing (KG-1 CMV-luc). The stably integrated KG-1 CMV-luc cells are cultivated in RPMI-1640 medium (Lonza, Strasbourg, France), supplemented with 10% FCS (Lonza, Strasbourg, France) and 0.5 mg/mL of geneticin (Sigma-Aldrich, Saint-Quentin Fallavier, France), under 5% CO2, at 37 °C and seeded at 20,000 cells per well in 96-well plates. After 5 or 24 h of incubation in the presence of compounds or the solvent DMSO, the induction of the promoter is measured by quantification of luciferase with the Brite-lite assay system (PerkinElmer, Villebon-sur-Yvette, France) according to the manufacturer’s protocol. The luminescence is measured on an EnVision™ Multilabel Plate Reader (PerkinElmer, Villebon-sur-Yvette, France), and the data are expressed as fold induction compared to DMSO control. The mean of 2–4 experiments and its standard error are reported.
Afterwards, MC3353 was tested in KG-1 leukemia cells for its ability to reactivate gene expression in a stably integrated luciferase reporter construction under the control of a CMV promoter inhibited by DNA methylation (CMV-luc assay). After 5 or 24 h of incubation in the presence of drugs at the indicated concentrations, the luciferase signal was measured and normalized to the value of the non-treated cells (Table 2). Since the CMV-luc assay is highly compromised when the tested compounds induce cell death, the cytotoxicity of MC3353 against KG-1 cells at 5 and 24 h was determined in parallel. MC3353 was highly toxic for KG-1 cells after 24 h of treatment starting from a concentration of 1 μM (Additional file 1: Table S1 and indicated in stars in Table 2).

[2] = system: RAJI cells; assay: Nuclear morphology analysis (Hoechst/PI); format: cell-based, human; details: 72 h; drastic increase in cell death rate between 0.5 and 1 μM
Description: (§1) Proliferation and viability of U-937, KG-1, RAJI, PC-3, MDA-MB-231, RPMI1788, PBMCs, and PHA_PBMCs were assessed by trypan blue exclusion assays at the indicated time points. Nuclear morphology changes associated with apoptosis and necrosis were evaluated by fluorescence microscopy after Hoechst and propidium iodide (PI) staining as previously described.
(§2) Fig. 6 Nuclear morphology analysis in U-937, RAJI, KG-1, and RPMI1788 cells. Cells were treated with increasing doses of MC3353. Upper panels—after 72 h of treatment, the nuclear morphology was analyzed by fluorescence microscopy after Hoechst and PI staining. Pictures are representative of three independent experiments. Lower panels—the results of cell counting are represented as the mean (± SD) of three independent experiments

[3] = system: KG-1 cells; assay: Nuclear morphology analysis (Hoechst/PI); format: cell-based, human; details: 72 h; considerable increase between 0.5 and 1 μM
Description: as §1, §2

[4] = system: U-937 cells; assay: Nuclear morphology analysis (Hoechst/PI); format: cell-based, human; details: 72 h; considerable increase between 0.5 and 1 μM
Description: as §1, §2

[5] = system: primary osteosarcoma cell lines; assay: Growth inhibition in panel of primary osteosarcoma cell lines; format: cell-based; details: Homo sapiens; range over the osteosarcoma panel
Description: To perform osteosarcoma cell growth inhibition experiments, 2 × 10^5 cells/well were plated, and MC3353 (0.1–30 μM) or DAC (0.5 μM) was added after 24 h. Cells were exposed for up to 96 h before being counted by Trypan blue vital cell count (Sigma-Aldrich, Milan, Italy). In parallel, the cells were treated with DMSO-containing medium as a control. The highest final concentration of DMSO in the medium was < 0.005%, and DMSO had no effect on cell growth.
IC50 values of compounds against cellular viability were determined by using nonlinear regression fitting curves with GraphPad Prism 8 or CalcuSyn software The t test used for statistical analyses was performed with GraphPad Prism 8. All the tests were one-tailed, and a p value < 0.05 was considered statistically significant.

## O=C(Nc1ccc(NC(=O)c2ccc(Nc3ccnc4ccccc34)cc2)cc1)OCc1ccccc1 [MC3353, Benzyl (4-(4-(quinolin-4-ylamino)benzamido)phenyl)carbamate]
[1]; 0.1 μM, 5 h
  Luciferase expression (fold ± SD): 1.0 ± 0.05 fold
[1]; 0.1 μM, 24 h
  Luciferase expression (fold ± SD): 1.1 ± 0.1 fold
[1]; 1 μM, 5 h
  Luciferase expression (fold ± SD): 5.8 ± 0.9 fold
[1]; 1 μM, 24 h
  Luciferase expression (fold ± SD): 4.4 ± 3.5 fold
[1]; 5 μM, 5 h
  Luciferase expression (fold ± SD): 6.7 ± 0.8 fold
[2]
  cell death modality, RAJI: shift from apoptosis to necrosis
[3]
  cell death modality, KG-1: induced mainly apoptosis
[4]
  cell death modality, U-937: induced mainly apoptosis
[5]
  pIC50: 5.62 to 5.96
